One test concerns HSP27, 70, 90 and HSP40. Kind of test: Western blot of heat shock proteins in kidney tissue lysates. Format: in vivo. Conditions: 30 mg/kg BW, cyst-induced mouse kidneys. Here is the method:
FIG. 7A, FIG. 7B, FIG. 7C, FIG. 7D, FIG. 7E, and FIG. 7F show chaperone expression is altered in mice by VX-809. (FIG. 7A-FIG.7B) Representative Western blot images of HSP27, 70, 90 and HSP40 in lysates of kidney tissue from no cyst induced (ND), cyst induced with Doxycycline (D) or cyst induced pkd−/− mice treated with VX-809 (D+VX-809) 30 mg/kg BW. (FIG. 7C, FIG. 7D, FIG. 7E, and FIG. 7F). Columns represent averages±standard errors of HSP27, 70, 90 and HSP40 expression. Data were analyzed by non-parametric t-test. n=4 for each treated and control groups. Black lines between lanes represent representative experiments from the same gel. *P<0.05; **P<0.01;
To facilitate their growth in the kidney, cysts have developed an altered network of proteins that most likely serves to protect them from stress . Next, it was determined whether VX-809 would alter the levels of Hsps in pkd−/− mice and in PN cells. […] Hsp 27, 70 and 90 are all elevated in cystic kidneys compared to normal controls. […] There is no change in Hsp40. […] Both sets of data are consistent with an alteration in the heat shock response to cyst growth.
On the technique in general: A western blot detects proteins with antibodies after separation by electrophoresis.

A further test concerns PN cells. In words: BrdU cell proliferation assay. Format: cell-based, mouse. Conditions: 1 and 10 μM, vs DMSO-treated cells. An excerpt: FIG. 3A, FIG. 3B, FIG. 3C, and FIG. 3D show cell proliferation is reduced by VX-809. (FIG. 3A-FIG. 3B) Proliferation in kidneys of Pkd1^fl/fl; Pax8^rtTA; TetO-cre mice. Representative images of Ki67 (a cellular marker for proliferation) staining of PN21 kidney sections from DMSO- and VX-809-treated mice. Arrows indicate Ki67-positive cells. Pictures were acquired with a Zeiss microscope equipped with 20× objective. (FIG. 3C) Summary data for Ki67-positive cells. Columns represent averages±standard errors of DMSO (vehicle)-treated (n=3) and VX-809-treated (n=3) mice. Statistical analysis was performed using a two-tailed Student's t test. (FIG. 3D) Proliferation in PN cells. PN cells were treated with VX-809 or DMSO). The bromodeoxyuridine (BrdU) concentration in the cells was measured by using a BrdU cell proliferation assay kit (Millipore Sigma#2750) according to the manufacturer's protocol. Columns represent averages±SEs of the OD of BrdU at 450/550 […]. Data were analyzed using Student's t-test, with n=5-7. Methods were described previously (62). *P>0.05; **P<0.01;
A hallmark of the cysts in ADPKD is an increase in proliferation in response to cAMP. Therefore, it was determined whether VX-809 would affect proliferation.

For test [1], the system named is PC2 in Pkd1^fl/fl; Pax8^rtTA; TetO-cre mice. In words: Immunoblot of PC2 protein in kidney tissue, PC1-null model. Format: in vivo, mouse. Conditions: doxycycline plus VX-809. As for the experimental part: The levels of PC2 protein were analyzed in two mouse models of ADPKD: Pkd1^fl/fl; Pax8^rtTA; TetO-cre, which is PC1 null, and the Pkd1^R3277C/R3277C (pkd1^RC/RC) which has a missense mutation in PC1. Pkd1^RC/RC mice develop a consistent, slowly progressing polycystic kidney disease. Pkd1^RC/RC mice were treated daily with VX-809, beginning at one month, and euthanized at 6 months.
Mice were treated without doxycycline (ND), with doxycycline plus DMSO (D), or with doxycycline plus VX809 (D+VX809), as indicated. Three mice were analyzed for each treatment.
In the Pkd1^fl/fl mice, doxycycline-induced cyst formation increases PC2 protein.

In the case of `Cc1ccc(NC(=O)C2(c3ccc4c(c3)OC(F)(F)O4)CC2)nc1-c1cccc(C(=O)O)c1` [VX-809, lumacaftor], in the test with HSP27, 70, 90 and HSP40, the Hsp27 expression entry is reported as “significantly less expression”, the Hsp40 expression entry is “no change”, the Hsp70 expression result is listed as “significantly less expression” and the Hsp90 expression entry is “significantly less expression”. Moreover, in the test on PN cells, the “cell proliferation (BrdU)” value was “significantly inhibit cell proliferation”. Besides, in test [1], the “PC2 protein expression (normalized to vinculin)” value is “restores PC2 expression to near-normal values”.

The record behind these values is patent US20220133702A1, “CYSTIC FIBROSIS TRANSMEMBRANE CONDUCTANCE REGULATOR MODULATORS FOR TREATING AUTOSOMAL DOMINANT POLYCYSTIC KIDNEY DISEASE” (The Johns Hopkins University, priority 2020, published 2022).
